Experimental data from patent US6479531B1, “Gastrin and cholecystokinin receptor ligands” (James Black Foundation Limited, priority 1998, dated 2002).

Target: T1, CCKB receptor (Mus musculus, UniProt P56481)
T1 construct: The whole brains from male mice (CD1 22-25 g; Charles River) were removed; from tissue; host or cells: cerebral cortex membranes of male CD1 mice
T1 sequence (P56481 1-453): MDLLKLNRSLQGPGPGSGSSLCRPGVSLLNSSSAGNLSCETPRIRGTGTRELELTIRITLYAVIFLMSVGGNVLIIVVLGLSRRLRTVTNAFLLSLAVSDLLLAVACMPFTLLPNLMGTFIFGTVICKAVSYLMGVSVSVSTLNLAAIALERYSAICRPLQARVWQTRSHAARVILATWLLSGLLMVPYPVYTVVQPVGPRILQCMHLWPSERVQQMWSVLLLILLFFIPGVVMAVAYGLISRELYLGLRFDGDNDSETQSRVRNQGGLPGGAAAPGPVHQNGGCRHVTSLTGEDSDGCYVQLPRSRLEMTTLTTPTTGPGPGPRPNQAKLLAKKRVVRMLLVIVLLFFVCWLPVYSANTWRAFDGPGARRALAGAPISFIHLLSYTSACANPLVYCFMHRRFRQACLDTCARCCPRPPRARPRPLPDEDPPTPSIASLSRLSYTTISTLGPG
Experiment: CCKB receptor radioligand binding assay in mouse cortical membranes
Conditions: [125I]-CCK8(S) 200 pM, 150 min at 21±3°, read-out: CCKB pKi (converted)
Procedure: The compounds of the examples were tested for binding at the CCKB receptor in mouse cortical membranes by means of a radioligand binding assay. The procedure was as follows:
The whole brains from male mice (CD1 22-25 g; Charles River) were removed and placed in ice-cold buffer (pH 7.2 @ 21±3°) of the following composition (mM); 10 HEPES, 130 NaCl, 4.7 KCl, 5 MgCl2, 1 EDTA and containing 0.25 gl^−1 bacitracin. The cortex was dissected, weighed and homogenised in 40 ml ice-cold buffer using a Teflon-in-glass homogeniser. The homogenate was centrifuged at 39800 g for 20 min […], the supernatant discarded and the pellet resuspended by homogenisation in fresh buffer. The homogenate was recentrifuged (39800 g, 20 min @ 4°) and the final pellet was resuspended in HEPES buffer to give a tissue concentration of 20 mg ml^−1 (original wet weight).
The assay was terminated by rapid filtration through pre-soaked Whatman GF/B filters using a Brandell Cell Harvester. The filters were washed (3×3 ml) with ice-cold 50 mM Tris-HCl (pH 7.4 @ 4° C.) and bound radioactivity determined by counting (1 min) in a gamma-counter.

| Ki [µM] | SMILES |
| --- | --- |
| 1.32 | O=C(O)c1cccc(NC(=O)c2cc(-c3ccc4ccccc4c3)[nH]c2CC2CCCCCC2)c1 [Example 14, 3-[(2-Cycloheptylmethyl-5-naphthalen-2-yl-1H-pyrrole-3-carbonyl)-amino]-benzoic Acid] |
| 0.182 | O=C(Nc1cc(-c2nnn[nH]2)cc(-c2nnn[nH]2)c1)c1cc(-c2ccc3ccccc3c2)[nH]c1CC1CCCCCC1 [Example 15, 2-Cycloheptylmethyl-5-naphthalen-2-yl-1H-pyrrole-3-carboxylic Acid [3,5-bis-(1H-tetrazol-5-yl)-phenyl]-amide] |
| 0.724 | O=C(Nc1cccc(-c2nnn[nH]2)c1)c1cc(-c2ccc3ccccc3c2)[nH]c1CC1CCCCCC1 [Example 16, 2-Cycloheptylmethyl-5-naphthalen-2-yl-1H-pyrrole-3-carboxylic Acid [3-(1H-tetrazol-5-yl)-phenyl]-amide] |
| 0.209 | O=C(O)c1cc(NC(=O)c2cc(-c3ccccc3)[nH]c2CCC23CC4CC(CC(C4)C2)C3)cc(C(=O)O)c1 [Example 17, 5-{[2-(2-Adamantan-1-yl-ethyl)-5-phenyl-1H-pyrrole-3-carbonyl]-amino}-isophthalic Acid] |
| 0.229 | O=C(Nc1cc(-c2nnn[nH]2)cc(-c2nnn[nH]2)c1)c1cc(-c2ccccc2)[nH]c1CCC12CC3CC(CC(C3)C1)C2 [Example 18, 2-(2-Adamantan-1-yl-ethyl)-5-phenyl-1H-pyrrole-3-carboxylic Acid [3,5-bis-(1H-tetrazol-5-yl)-phenyl]-amide] |
| 0.447 | O=C(O)c1cccc(NC(=O)c2cc(-c3ccccc3)[nH]c2CCC23CC4CC(CC(C4)C2)C3)c1 [Example 19, 3-{[2-(2-Adamantan-1-yl-ethyl)-5-phenyl-1H-pyrrole-3-carbonyl]-amino}-benzoic Acid] |
| 0.813 | O=C(O)c1cccc(NC(=O)c2[nH]c(-c3ccc4ccccc4c3)nc2CC2CCCCCC2)c1 [Example 21, 3-[(5-Cycloheptylmethyl-2-naphthalen-2-yl-1H-imidazole-4-carbonyl)-amino]-benzoic Acid] |
| 4.07 | O=C(Nc1cc(CO)cc(CO)c1)c1[nH]c(-c2ccc3ccccc3c2)nc1CC1CCCCCC1 [Example 22, 5-Cycloheptylmethyl-2-naphthalen-2-yl-1H-imidazole-4-carboxylic Acid (3,5-bis-hydroxymethyl-phenyl)-amide] |
| 1.23 | O=C(O)c1cc(NC(=O)c2nc(-c3cccc4ccccc34)[nH]c2CC2CCCCCC2)cc(C(=O)O)c1 [Example 23, 5-[(5-Cycloheptylmethyl-2-naphthalen-1-yl-1H-imidazole-4-carbonyl)-amino]-isophthalic Acid] |
| 0.0692 | O=C(Nc1cc(-c2nnn[nH]2)cc(-c2nnn[nH]2)c1)c1nc(-c2ccccc2)[nH]c1CC1CCCCCC1 [Example 25, 5-Cycloheptyimethyl-2-phenyl-1H-imidazole-4-carboxylic Acid [3,5-bis-(1H-tetrazol-5-yl)-phenyl]-amide] |
| 3.55 | O=C(O)c1cc(NC(=O)c2nc(CCc3ccccc3)[nH]c2CC2CCCCCC2)cc(C(=O)O)c1 [Example 27, 5-[(5-Cycloheptylmethyl-2-(2-phenyl-ethyl)-1H-imidazole-4-carbonyl)-amino]-isophthalic Acid] |
| 1.23 | COc1cccc(-c2nc(C(=O)Nc3cc(C(=O)O)cc(C(=O)O)c3)c(CC3CCCCCC3)[nH]2)c1 [Example 28, 5-[(5-Cycloheptylmethyl-2-(3-methoxy-phenyl)-1H-imidazole-4-carbonyl)-amino]-isophthalic Acid] |
| 1.48 | COc1ccc(-c2nc(C(=O)Nc3cc(C(=O)O)cc(C(=O)O)c3)c(CC3CCCCCC3)[nH]2)cc1 [Example 29, 5-[(5-Cycloheptylmethyl-2-(4-methoxy-phenyl)-1H-imidazole-4-carbonyl)-amino]-isophthalic Acid] |
| 1.07 | O=C(O)c1cc(NC(=O)c2[nH]c(-c3ccc4[nH]ccc4c3)nc2CC2CCCCCC2)cc(C(=O)O)c1 [Example 30, 5-[(5-Cycloheptylmethyl-2-(1H-indol-5-yl)-1H-imidazole-4-carbonyl)-amino]-isophthalic Acid] |
| 1.66 | CN(C)c1ccc(-c2nc(C(=O)Nc3cc(C(=O)O)cc(C(=O)O)c3)c(CC3CCCCCC3)[nH]2)cc1 [Example 31, 5-[(5-Cycloheptylmethyl-2-(4-dimethylamino-phenyl)-1H-imidazole-4-carbonyl)-amino]-isophthalic Acid] |
| 4.79 | O=C(O)c1cc(NC(=O)c2nc(-c3cccnc3)[nH]c2CC2CCCCCC2)cc(C(=O)O)c1 [Example 32, 5-[(5-Cycloheptylmethyl-2-pyridin-3-yl-1H-imidazole-4-carbonyl)-amino]-isophthalic Acid] |
| 1.86 | O=C(O)c1cc(NC(=O)c2nc(-c3ccc[nH]3)[nH]c2CC2CCCCCC2)cc(C(=O)O)c1 [Example 33, 5-[(5-Cycloheptylmethyl-2-(1H-pyrrol-2-yl)-1H-imidazole-4-carbonyl)-amino]-isophthalic Acid] |
| 1.58 | O=C(O)c1cc(NC(=O)c2nc(C3CCCCC3)[nH]c2CC2CCCCCC2)cc(C(=O)O)c1 [Example 34, 5-[(5-Cycloheptylmethyl-2-cyclohexyl-1H-imidazole-4-carbonyl)-amino]-isophthalic Acid] |
| 3.89 | O=C(O)c1cc(NC(=O)c2nc[nH]c2CC2CCCCCC2)cc(C(=O)O)c1 [Example 35, 5-[(5-Cycloheptylmethyl-1H-imidazole-4-carbonyl)-amino]-isophthalic Acid] |
| 3.16 | O=C(O)c1cc(NC(=O)c2ncn(Cc3ccccc3)c2CC2CCCCCC2)cc(C(=O)O)c1 [Example 36, 5-[(1-Benzyl-5-cycloheptylmethyl-1H-imidazole-4-carbonyl)-amino]-isophthalic Acid] |
| 1.12 | O=C(O)c1cccc(NC(=O)c2nc(-c3ccccc3)[nH]c2CCC2CCCCCC2)c1 [Example 38, 3-{[5-(2-Cycloheptyl-ethyl)-2-phenyl-1H-imidazole-4-carbonyl]-amino}-benzoic Acid] |
| 2.04 | O=C(O)c1cc(NC(=O)c2nc(-c3ccccc3)[nH]c2CCC2CCCCCC2)cc(C(=O)O)c1 [Example 39, 5-{[5-(2-Cycloheptyl-ethyl)-2-phenyl-1H-imidazole-4-carbonyl]-amino}-isophthalic Acid] |
| 4.37 | O=C(O)c1cc(NC(=O)c2nc(-c3ccccc3C(F)(F)F)[nH]c2CCC2CCCCCC2)cc(C(=O)O)c1 [Example 41, 5-{[5-(2-Cycloheptyl-ethyl)-2-(2-trifluoromethyl-phenyl)-1H-imidazole-4-carbonyl]-amino}-isophthalic Acid] |
| 0.12 | O=C(O)c1cc(NC(=O)c2nc(-c3ccc4ccccc4c3)[nH]c2CCC23CC4CC(CC(C4)C2)C3)cc(C(=O)O)c1 [Example 44, 5-{[5-(2-Adamantan-1-yl-ethyl)-2-naphthalene-2-yl-1H-imidazole-4-carbonyl]-amino}-isophthalic Acid] |
| 0.501 | O=C(O)c1cccc(NC(=O)c2nc(-c3ccc4ccccc4c3)[nH]c2CCC23CC4CC(CC(C4)C2)C3)c1 [Example 45, 3-{[5-(2-Adamantan-1-yl-ethyl)-2-naphthalen-2-yl-1H-imidazole-4-carbonyl]-amino}-benzoic Acid] |
| 0.269 | O=C(Nc1cccc(CO)c1)c1nc(-c2ccccc2)[nH]c1CCC12CC3CC(CC(C3)C1)C2 [Example 48, 5-(2-Adamantan-1-yl-ethyl)-2-phenyl-1H-imidazole-4-carboxylic Acid (3-hydroxymethyl-phenyl)-amide] |
| 0.182 | O=C(Nc1cccc(-c2nnn[nH]2)c1)c1nc(-c2ccccc2)[nH]c1CCC12CC3CC(CC(C3)C1)C2 [Example 49] |
| 2.63 | O=C(O)c1ccc(NC(=O)c2nc(-c3ccccc3F)[nH]c2CCC23CC4CC(CC(C4)C2)C3)cc1 [Example 51, 4-{[5-(2-Adamantan-1-yl-ethyl)-2-(2-fluoro-phenyl)-1H-imidazole-4-carbonyl]-amino}-benzoic Acid] |
| 2.57 | O=C(O)CCNC(=O)c1nc(-c2ccccc2F)[nH]c1CCC12CC3CC(CC(C3)C1)C2 [Example 52, 3-{[5-(2-Adamantan-1-yl-ethyl)-2-(2-fluoro-phenyl)-1H-imidazole-4-carbonyl]-amino}-propionic Acid] |
| 1.66 | O=C(O)CNC(=O)c1nc(-c2ccccc2F)[nH]c1CCC12CC3CC(CC(C3)C1)C2 [Example 53, 2-{[5-(2-Adamantan-1-yl-ethyl)-2-(2-fluoro-phenyl)-1H-imidazole-4-carbonyl]-amino}-acetic Acid] |

| SMILES | Ki [µM] |
| --- | --- |
| O=C(O)c1cc(NC(=O)c2[nH]c(-c3ccc4ccccc4c3)nc2CC2CCCCCC2)cc(C(=O)O)c1 [Example 20, 5-[(5-Cycloheptylmethyl-2-naphthalen-2-yl-1H-imidazole-4-carbonyl)-amino]-isophthalic Acid] | 0.251 |
